Data reported in patent publication US6737383B1, “Herbicidal oxadiazolidines” (priority 1999, dated 2004).

Tests used:
[1] = tested on: corn; assay: Test B pre/postemergence corn; format: in vivo, Zea mays
Method in brief: (§1)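 Test chemicals in a non-phytotoxic solvent mixture with surfactant were sprayed preemergence onto planted seeds and postemergence onto plants 2 to 18 cm tall (1- to 4-leaf stage). After twelve to sixteen days in a greenhouse, injury was visually rated against untreated controls from 0 (no effect) to 10 (complete control).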

[2] = tested on: soybean; assay: Test B pre/postemergence soybean; format: in vivo, Glycine max; details: for Plant response rating, Soybean: scale of 0 to 10 where 0 is no effect and 10 is complete control
Method in brief: as §1

[3] = tested on: duck salad; assay: Test B flood test duck salad; format: in vivo, Heteranthera limosa
Method in brief: (§2)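 Read-out is a visual response score from 0 (no effect) to 10 (complete control), assigned by comparison with untreated controls. Treatment was applied at the 2-leaf stage, and plants stayed in the greenhouse for twelve to sixteen days before scoring.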

[4] = tested on: blackgrass; assay: Test B pre/postemergence blackgrass; format: in vivo, Alopecurus myosuroides
Method in brief: as §1

[5] = tested on: morningglory; assay: Test B pre/postemergence morningglory; format: in vivo, Ipomoea hederacea; details: for Plant response rating, Morningglory: scale of 0 to 10 where 0 is no effect and 10 is complete control
Method in brief: as §1

[6] = tested on: smallflower flatsedge; assay: Test B flood test smallflower flatsedge; format: in vivo, Cyperus difformis
Method in brief: as §2

[7] = tested on: purple nutsedge; assay: Test B pre/postemergence purple nutsedge; format: in vivo, Cyperus rotundus; details: for Plant response rating, Nutsedge: scale of 0 to 10 where 0 is no effect and 10 is complete control
Method in brief: as §1

[8] = tested on: cocklebur; assay: Test B pre/postemergence cocklebur; format: in vivo, Xanthium strumarium
Method in brief: as §1

[9] = tested on: surinam grass; assay: Test B pre/postemergence surinam grass; format: in vivo, Brachiaria decumbens
Method in brief: as §1

[10] = tested on: wild oat; assay: Test B pre/postemergence wild oat; format: in vivo, Avena fatua; details: for Plant response rating, Wild oats: scale of 0 to 10 where 0 is no effect and 10 is complete control
Method in brief: as §1

[11] = tested on: velvetleaf; assay: Test B pre/postemergence velvetleaf; format: in vivo, Abutilon theophrasti; details: for Plant response rating, Velvetleaf: scale of 0 to 10 where 0 is no effect and 10 is complete control
Method in brief: as §1

[12] = tested on: rice; assay: Test B flood test rice; format: in vivo, Oryza sativa
Method in brief: as §2

[13] = tested on: bamyardgrass; assay: Test B flood test barnyardgrass; format: in vivo, Echinochloa crus-galli
Method in brief: as §2

[14] = tested on: sugar beet; assay: Test B pre/postemergence sugar beet; format: in vivo, Beta vulgaris; details: for Plant response rating, Sugarbeets: scale of 0 to 10 where 0 is no effect and 10 is complete control
Method in brief: as §1

[15] = tested on: wheat; assay: Test B pre/postemergence wheat; format: in vivo, Triticum aestivum; details: for Plant response rating, Wheat: scale of 0 to 10 where 0 is no effect and 10 is complete control
Method in brief: as §1

[16] = tested on: crabgrass; assay: Test B pre/postemergence crabgrass; format: in vivo, Digitaria sanguinalis
Method in brief: as §1

[17] = tested on: rape; assay: Test B pre/postemergence rape; format: in vivo, Brassica napus; details: for Plant response rating, Rape: scale of 0 to 10 where 0 is no effect and 10 is complete control
Method in brief: as §1

[18] = tested on: giant foxtail; assay: Test B pre/postemergence giant foxtail; format: in vivo, Setaria faberii
Method in brief: as §1

[19] = tested on: pigweed; assay: Test B pre/postemergence pigweed; format: in vivo, Amaranthus retroflexus; details: for Plant response rating, Redroot pigweed: scale of 0 to 10 where 0 is no effect and 10 is complete control
Method in brief: as §1

[20] = Postemergence, Rate 250 g/ha, scale 0 to 10
[21] = Postemergence, Rate 500 g/ha, scale of 0 to 10 where 0 is no effect and 10 is complete control
[22] = Preemergence, Rate 62 g/ha, scale of 0 to 10 where 0 is no effect and 10 is complete control
[23] = Preemergence, Rate 125 g/ha, scale of 0 to 10 where 0 is no effect and 10 is complete control
[24] = Preemergence, Rate 250 g/ha, scale 0 to 10, 0 is no effect, 10 is complete control
[25] = Preemergence, Rate 500 g/ha, scale 0 to 10, 0 is no effect, 10 is complete control
[26] = Rate 62 g/ha, Postemergence, scale 0 to 10 (0 no effect, 10 complete control)
[27] = Rate 125 g/ha, Postemergence, scale 0 to 10, 0 is no effect, 10 is complete control
[28] = Rate 62 g/ha, flood test species, Pre-emergence, visual evaluation after twelve to sixteen days
[29] = Rate 125 g/ha, under heading Pre-emergence, flood test species, visual evaluation after twelve to sixteen days
[30] = Rate 250 g/ha, Pre-emergence (flood test species), scale 0 to 10, 0 is no effect, 10 is complete control
[31] = Rate 500 g/ha, Pre-emergence, flood test species, scale 0 to 10 (0 no effect, 10 complete control)

CCOC(=O)CC(C(=O)OCC)n1c(=O)on(C(=O)N(c2ccc(F)cc2F)C(C)C)c1=O (centres unmarked) [Compound 465]
Corn plant response rating [1, 20]: 0
Corn plant response rating [1, 21]: 2
Plant response rating, Corn [1, 22]: 0
Plant response rating, Corn [1, 23]: 0
Corn plant response rating [1, 24]: 0
Corn plant response rating [1, 25]: 2
Corn plant response rating [1, 26]: 0
Corn plant response rating [1, 27]: 0
Soybean plant response rating [2, 20]: 1
Plant response rating, Soybean ([2]; Preemergence, Rate 62 g/ha): 0
Plant response rating, Soybean ([2]; Preemergence, Rate 125 g/ha): 0
Soybean plant response rating [2, 24]: 7
Soybean plant response rating [2, 26]: 1
Soybean plant response rating [2, 27]: 1
Plant response rating, Ducksalad (0 to 10 scale, 0 is no effect, 10 is complete control) [3, 28]: 0
Ducksalad plant response rating (0 to 10 scale, 0 is no effect, 10 is complete control) [3, 29]: 0
Ducksalad plant response rating [3, 30]: 0
Ducksalad plant response rating [3, 31]: 0
Blackgrass plant response rating [4, 20]: 6
Blackgrass plant response rating [4, 21]: 8
Plant response rating, Blackgrass [4, 22]: 2
Plant response rating, Blackgrass [4, 23]: 3
Blackgrass plant response rating [4, 24]: 6
Blackgrass plant response rating [4, 25]: 10
Blackgrass plant response rating [4, 26]: 0
Blackgrass plant response rating [4, 27]: 2
Morningglory plant response rating [5, 20]: 2
Plant response rating, Morningglory ([5]; Preemergence, Rate 62 g/ha): 0
Plant response rating, Morningglory ([5]; Preemergence, Rate 125 g/ha): 0
Morningglory plant response rating [5, 24]: 0
Morningglory plant response rating [5, 25]: 0
Morningglory plant response rating [5, 26]: 0
Morningglory plant response rating [5, 27]: 1
Plant response rating, S. Flatsedge (0 to 10 scale, 0 is no effect, 10 is complete control) [6, 28]: 0
S. Flatsedge plant response rating (0 to 10 scale, 0 is no effect, 10 is complete control) [6, 29]: 0
S. Flatsedge plant response rating [6, 30]: 0
S. Flatsedge plant response rating [6, 31]: 0
Nutsedge plant response rating [7, 20]: 0
Plant response rating, Nutsedge ([7]; Preemergence, Rate 62 g/ha): 0
Plant response rating, Nutsedge ([7]; Preemergence, Rate 125 g/ha): 0
Nutsedge plant response rating [7, 24]: 0
Nutsedge plant response rating [7, 25]: 0
Nutsedge plant response rating [7, 26]: 0
Nutsedge plant response rating [7, 27]: 0
Cocklebur plant response rating [8, 20]: 0
Cocklebur plant response rating [8, 21]: 0
Plant response rating, Cocklebur [8, 22]: 0
Plant response rating, Cocklebur [8, 23]: 0
Cocklebur plant response rating [8, 24]: 0
Cocklebur plant response rating [8, 25]: 0
Cocklebur plant response rating [8, 26]: 0
Cocklebur plant response rating [8, 27]: 0
B. signalgrass plant response rating ([9]; Postemergence, Rate 250 g/ha, scale 0 to 10, 0 no effect, 10 complete control): 0
B. signalgrass plant response rating [9, 21]: 0
Plant response rating, B. signalgrass [9, 22]: 0
Plant response rating, B. signalgrass [9, 23]: 2
B. signalgrass plant response rating [9, 24]: 3
B. signalgrass plant response rating [9, 25]: 5
B. signalgrass plant response rating [9, 26]: 0
B. signalgrass plant response rating [9, 27]: 0
Wild oats plant response rating [10, 20]: 0
Plant response rating, Wild oats ([10]; Preemergence, Rate 62 g/ha): 0
Plant response rating, Wild oats ([10]; Preemergence, Rate 125 g/ha): 0
Wild oats plant response rating [10, 24]: 2
Wild oats plant response rating [10, 25]: 3
Wild oats plant response rating [10, 26]: 0
Wild oats plant response rating [10, 27]: 0
Velvetleaf plant response rating [11, 20]: 3
Plant response rating, Velvetleaf ([11]; Preemergence, Rate 62 g/ha): 0
Plant response rating, Velvetleaf ([11]; Preemergence, Rate 125 g/ha): 3
Velvetleaf plant response rating [11, 24]: 7
Velvetleaf plant response rating [11, 25]: 8
Velvetleaf plant response rating [11, 26]: 0
Velvetleaf plant response rating [11, 27]: 0
Plant response rating, Rice (0 to 10 scale, 0 is no effect, 10 is complete control) [12, 28]: 0
Rice plant response rating (0 to 10 scale, 0 is no effect, 10 is complete control) [12, 29]: 0
Rice plant response rating [12, 30]: 0
Rice plant response rating [12, 31]: 0
Plant response rating, Barnyardgrass (0 to 10 scale, 0 is no effect, 10 is complete control) [13, 28]: 0
Barnyardgrass plant response rating (0 to 10 scale, 0 is no effect, 10 is complete control) [13, 29]: 0
Barnyardgrass plant response rating [13, 30]: 0
Barnyardgrass plant response rating [13, 31]: 0
Sugarbeets plant response rating [14, 20]: 0
Plant response rating, Sugarbeets ([14]; Preemergence, Rate 62 g/ha): 0
Plant response rating, Sugarbeets ([14]; Preemergence, Rate 125 g/ha): 2
Sugarbeets plant response rating [14, 24]: 3
Sugarbeets plant response rating [14, 25]: 5
Sugarbeets plant response rating [14, 26]: 0
Sugarbeets plant response rating [14, 27]: 0
Wheat plant response rating [15, 20]: 0
Plant response rating, Wheat ([15]; Preemergence, Rate 62 g/ha): 0
Plant response rating, Wheat ([15]; Preemergence, Rate 125 g/ha): 0
Wheat plant response rating [15, 24]: 0
Wheat plant response rating [15, 25]: 0
Wheat plant response rating [15, 26]: 0
Wheat plant response rating [15, 27]: 0
Crabgrass plant response rating [16, 20]: 5
Crabgrass plant response rating [16, 21]: 8
Plant response rating, Crabgrass [16, 22]: 2
Crabgrass plant response rating [16, 24]: 4
Crabgrass plant response rating [16, 25]: 10
Crabgrass plant response rating [16, 26]: 1
Crabgrass plant response rating [16, 27]: 1
Rape plant response rating [17, 20]: 0
Plant response rating, Rape ([17]; Preemergence, Rate 62 g/ha): 0
Plant response rating, Rape ([17]; Preemergence, Rate 125 g/ha): 2
Rape plant response rating [17, 24]: 2
Rape plant response rating [17, 25]: 5
Rape plant response rating [17, 26]: 0
Rape plant response rating [17, 27]: 0
Giant foxtail plant response rating [18, 20]: 5
Giant foxtail plant response rating [18, 21]: 9
Plant response rating, Giant foxtail [18, 22]: 7
Plant response rating, Giant foxtail [18, 23]: 10
Giant foxtail plant response rating [18, 24]: 10
Giant foxtail plant response rating [18, 25]: 10
Giant foxtail plant response rating [18, 26]: 2
Giant foxtail plant response rating [18, 27]: 5
Redroot pigweed plant response rating [19, 20]: 0
Plant response rating, Redroot pigweed ([19]; Preemergence, Rate 62 g/ha): 3
Plant response rating, Redroot pigweed ([19]; Preemergence, Rate 125 g/ha): 9
Redroot pigweed plant response rating [19, 24]: 9
Redroot pigweed plant response rating [19, 25]: 10
Redroot pigweed plant response rating [19, 26]: 0
Redroot pigweed plant response rating [19, 27]: 0
